Assays:
Glucocorticoid receptor [1] = biological target: T1, Glucocorticoid receptor (Homo sapiens, UniProt P04150); test: Binding affinity to glucocorticoid receptor expressed in baculovirus-infected insect cells using tetramethylrhodamine labeled Dexamethasone by fluorescence polarization microplate assay
T1 sequence (P04150 whole entry): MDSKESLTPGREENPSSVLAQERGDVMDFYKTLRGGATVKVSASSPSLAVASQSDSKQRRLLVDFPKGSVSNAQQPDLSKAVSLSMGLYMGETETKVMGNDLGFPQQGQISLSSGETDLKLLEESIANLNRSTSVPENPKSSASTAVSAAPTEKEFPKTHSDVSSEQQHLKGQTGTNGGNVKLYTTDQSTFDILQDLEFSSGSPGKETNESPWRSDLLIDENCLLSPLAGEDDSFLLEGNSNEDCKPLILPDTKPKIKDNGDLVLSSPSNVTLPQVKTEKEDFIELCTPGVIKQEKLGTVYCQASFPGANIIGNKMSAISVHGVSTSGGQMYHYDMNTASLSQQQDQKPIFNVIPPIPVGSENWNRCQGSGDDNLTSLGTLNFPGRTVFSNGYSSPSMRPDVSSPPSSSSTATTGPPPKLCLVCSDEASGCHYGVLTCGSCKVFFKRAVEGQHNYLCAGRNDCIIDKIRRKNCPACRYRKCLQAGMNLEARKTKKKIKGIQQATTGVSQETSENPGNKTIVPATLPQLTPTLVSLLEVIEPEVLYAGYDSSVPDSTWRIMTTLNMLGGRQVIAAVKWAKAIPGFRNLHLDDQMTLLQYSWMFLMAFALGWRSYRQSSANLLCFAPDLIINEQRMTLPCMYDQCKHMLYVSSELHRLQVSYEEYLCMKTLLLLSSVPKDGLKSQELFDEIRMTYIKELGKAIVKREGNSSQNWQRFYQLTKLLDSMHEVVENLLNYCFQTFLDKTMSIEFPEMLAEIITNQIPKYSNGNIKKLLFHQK

Progesterone receptor = biological target: T2, Progesterone receptor (Homo sapiens, UniProt P06401); test: Binding affinity to progesterone receptor expressed in baculovirus-infected insect cells using tetramethylrhodamine labeled RU-486 by fluorescence polarization microplate assay
T2 sequence (P06401 whole entry): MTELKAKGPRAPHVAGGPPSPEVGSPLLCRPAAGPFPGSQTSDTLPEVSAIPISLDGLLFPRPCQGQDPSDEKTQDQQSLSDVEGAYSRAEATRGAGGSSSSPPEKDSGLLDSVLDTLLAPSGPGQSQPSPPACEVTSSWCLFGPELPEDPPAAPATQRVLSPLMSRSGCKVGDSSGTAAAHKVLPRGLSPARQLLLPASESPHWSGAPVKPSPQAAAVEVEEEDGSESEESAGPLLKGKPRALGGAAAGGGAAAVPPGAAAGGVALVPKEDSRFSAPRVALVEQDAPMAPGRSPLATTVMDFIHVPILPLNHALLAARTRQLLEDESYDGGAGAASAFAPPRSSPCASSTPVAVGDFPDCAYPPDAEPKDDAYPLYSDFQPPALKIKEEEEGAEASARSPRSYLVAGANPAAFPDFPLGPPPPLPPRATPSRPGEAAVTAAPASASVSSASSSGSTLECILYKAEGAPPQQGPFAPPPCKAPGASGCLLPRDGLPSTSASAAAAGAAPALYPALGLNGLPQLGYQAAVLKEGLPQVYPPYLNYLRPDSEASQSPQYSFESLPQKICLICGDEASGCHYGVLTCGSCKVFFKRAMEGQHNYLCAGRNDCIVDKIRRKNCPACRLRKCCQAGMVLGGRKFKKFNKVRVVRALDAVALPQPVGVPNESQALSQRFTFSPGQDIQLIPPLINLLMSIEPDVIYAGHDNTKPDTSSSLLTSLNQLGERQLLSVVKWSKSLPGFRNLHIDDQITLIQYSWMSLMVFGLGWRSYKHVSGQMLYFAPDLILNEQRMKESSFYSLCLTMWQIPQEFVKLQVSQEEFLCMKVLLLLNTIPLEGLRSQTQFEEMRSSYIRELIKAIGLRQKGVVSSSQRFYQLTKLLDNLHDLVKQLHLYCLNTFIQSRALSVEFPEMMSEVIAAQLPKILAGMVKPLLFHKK

Glucocorticoid receptor [2] = biological target: T1, Glucocorticoid receptor; test: Transrepression activity at glucocorticoid receptor in HFF assessed as inhibition of IL-1-induced IL-6 production after 18 to 24 hrs by ELISA; assay type: cell-based
Glucocorticoid receptor [3] = biological target: T1, Glucocorticoid receptor; test: Transactivation activity at glucocorticoid receptor in HFF assessed as induction of aromatase activity after 18 to 24 hrs by ELISA; assay type: cell-based
Rattus norvegicus = test: AUC (infinity) in Sprague-Dawley rat at 30 mg/kg, po; assay type: ADME, organism-based, Plasma; design: time infinity, dose 30 mg/kg, route oral; settings: in vivo
Mus musculus [4] = test: Toxicity in collagen and Freund's complete adjuvant-induced B10.RIII mouse arthritis model assessed as increase of free fatty acids level at 30 mg/kg, po qd for 5 weeks; assay type: organism-based; design: dose 30 mg/kg, route oral; settings: in vivo, 840 h
Mus musculus [5] = test: Toxicity in B10.RIII mouse assessed as increase of body fat content at 30 mg/kg, po qd for 5 weeks; assay type: organism-based; design: dose 30 mg/kg, route oral; settings: in vivo, 840 h

IC50 (Glucocorticoid receptor [1]): 0.0021 µM
IC50 (Progesterone receptor): 1.2 µM
IC50 (Glucocorticoid receptor [2]): 0.0033 µM
EC50 (Glucocorticoid receptor [3]): 0.03 µM
AUC (Rattus norvegicus): 2236 ng·h/mL
Compound: CC(C)(C[C@@](O)(Cc1cc2ccncc2[nH]1)C(F)(F)F)c1cc(F)ccc1O
Activity (Mus musculus [4]): Non-toxic
Activity (Mus musculus [5]): Non-toxic

Source: ChEMBL document CHEMBL1250518, “Nonsteroidal dissociated glucocorticoid agonists containing azaindoles as steroid A-ring mimetics” (J Med Chem, 2010)
